# In patent US20250346585A1 (Alexion Pharmaceuticals, Inc., priority 2022, published 2025):
# Biological target: Human complement C1s enzyme (Homo sapiens (Human), UniProt P09871)
# Experiment: Human C1s enzyme assay
# Format: biochemical
# Conditions: Human C1s enzyme assay of Example 3; read-out: IC50 (Stars)
# Procedure, shortened: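 IC50 derived by nonlinear regression of rate versus concentration, with rate taken from A405 kinetics (30 s intervals, 30 min) after adding 100 μM each Z-L-Lys-SBzl and DTNB. C1s from human serum, 1.16 nM, exposed to compound for 5 min at RT beforehand; buffer 50 mM Tris, 1 M NaCl, pH 7.5.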
# Sequence of Human complement C1s enzyme (P09871 438-688 limits assumed): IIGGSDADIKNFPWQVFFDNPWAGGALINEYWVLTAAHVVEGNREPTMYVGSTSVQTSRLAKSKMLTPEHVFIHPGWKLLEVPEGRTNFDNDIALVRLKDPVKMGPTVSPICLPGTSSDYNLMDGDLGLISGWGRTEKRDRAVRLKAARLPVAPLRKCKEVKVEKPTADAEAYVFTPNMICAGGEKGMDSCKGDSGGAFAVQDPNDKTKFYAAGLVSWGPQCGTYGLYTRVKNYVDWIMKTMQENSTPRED
# Sequence of Human complement C1s enzyme (P09871 16-437 partner limits assumed): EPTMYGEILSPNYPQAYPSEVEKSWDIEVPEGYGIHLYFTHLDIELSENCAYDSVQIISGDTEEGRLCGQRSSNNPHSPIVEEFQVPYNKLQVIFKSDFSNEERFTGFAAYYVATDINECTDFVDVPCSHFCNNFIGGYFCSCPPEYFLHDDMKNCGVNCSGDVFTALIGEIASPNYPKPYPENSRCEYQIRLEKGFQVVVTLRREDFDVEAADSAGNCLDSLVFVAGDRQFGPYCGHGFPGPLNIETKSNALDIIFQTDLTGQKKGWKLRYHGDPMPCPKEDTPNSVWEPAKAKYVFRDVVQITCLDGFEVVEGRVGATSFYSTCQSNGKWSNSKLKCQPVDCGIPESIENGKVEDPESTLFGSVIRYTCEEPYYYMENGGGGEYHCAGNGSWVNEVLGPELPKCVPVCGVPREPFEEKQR
row,SMILES,IC50 [nM]
1,"C[C@@H](NC(=O)[C@@H]1CC2(CN1C(=O)CNC(=O)c1cc3ccc1CCc1ccc(cc1)CC3)OCCO2)c1cc(C(=N)N)cs1 [Compound 66, (S)-7-((1,4(1,4)-dibenzenacyclohexaphane-1^2-carbonyl)glycyl)-N—((R)-1-(4-carbamimidoylthiophen-2-yl)ethyl)-1,4-dioxa-7-azaspiro[4.4]nonane-8-carboxamide]",< 100
2,"CO[C@@H]1C[C@@H](C(=O)N[C@H](C)c2cc(C(=N)N)cs2)N(C(=O)CNC(=O)c2ccc3c(c2)-c2ccccc2C3(F)F)C1 [Compound 71, (2S,4R)—N—((R)-1-(4-carbamimidoylthiophen-2-yl)ethyl)-1-((9,9-difluoro-9H-fluorene-3-carbonyl)glycyl)-4-methoxypyrrolidine-2-carboxamide]",< 100
3,"C[C@@H](NC(=O)[C@@H]1CC2(CN1C(=O)CNC(=O)c1cc(F)c(-c3ccc(F)cc3)cn1)OCCO2)c1cc(C(=N)N)cs1 [Compound 181, (S)—N—((R)-1-(4-carbamimidoylthiophen-2-yl)ethyl)-7-((4-fluoro-5-(4-fluorophenyl)picolinoyl)glycyl)-1,4-dioxa-7-azaspiro[4.4]nonane-8-carboxamide]",< 100
4,"N=C(N)c1csc(CNC(=O)[C@@H]2CC3(CN2C(=O)CNC(=O)c2ccc(-c4cc(F)ccc4F)cc2)OCCO3)c1 [Compound 188, (S)—N-((4-carbamimidoylthiophen-2-yl)methyl)-7-((2′,5′-difluoro-[1,1′-biphenyl]-4-carbonyl)glycyl)-1,4-dioxa-7-azaspiro[4.4]nonane-8-carboxamide]",< 100
5,"C[C@H](O)[C@H](O)[C@@H](O)[C@@H](O)CNCC(=O)NCCOC[C@@]12C[C@@H]1N(C(=O)CNC(=O)c1ccc(Oc3ccc(F)cc3)cc1)[C@H](C(=O)N[C@H](C)c1cc(C(=N)N)cs1)C2 [Compound 84, (1S,3S,5R)—N—((R)-1-(4-carbamimidoylthiophen-2-yl)ethyl)-2-((4-(4-fluorophenoxy)benzoyl)glycyl)-5-((2-(2-(((2S,3S,4S,5S)-2,3,4,5-tetrahydroxyhexyl)amino)acetamido)ethoxy)methyl)-2-azabicyclo[3.1.0]hexane-3-carboxamide]",< 100
6,"N=C(N)c1csc(CNC(=O)[C@@H]2C[C@@H](OC(F)F)CN2C(=O)CNC(=O)c2ccc(Oc3ccc(F)cc3)cc2)c1 [Compound 3, (2S,4R)—N-((4-carbamimidoylthiophen-2-yl)methyl)-4-(difluoromethoxy)-1-((4-(4-fluorophenoxy)benzoyl)glycyl)pyrrolidine-2-carboxamide]",< 100
7,"O=C(NCC(=O)N1CC2(C[C@H]1C(=O)NCc1cc(Br)cs1)OCCO2)c1ccc(Oc2ccc(F)cc2)cc1 [Compound 75, (S)—N-((4-bromothiophen-2-yl)methyl)-7-((4-(4-fluorophenoxy)benzoyl)glycyl)-1,4-dioxa-7-azaspiro[4.4]nonane-8-carboxamide]",> 1000
8,"CC(=O)ONC(=N)c1csc([C@@H](C)NC(=O)[C@@H]2CC3(CN2C(=O)CNC(=O)c2ccc4c(c2)-c2ccccc2C4(F)F)OCCO3)c1 [Compound 125, (S)—N—((R)-1-(4-(N-acetoxycarbamimidoyl)thiophen-2-yl)ethyl)-7-((9,9-difluoro-9H-fluorene-3-carbonyl)glycyl)-1,4-dioxa-7-azaspiro[4.4]nonane-8-carboxamide]",< 100
9,"C[C@@H](NC(=O)[C@@H]1CC2(CN1C(=O)CNC(=O)c1cccc(-c3ccc(F)cc3)c1)OCCO2)c1cc(C(=N)N)cs1 [Compound 112, (S)—N—((R)-1-(4-carbamimidoylthiophen-2-yl)ethyl)-7-((4′-fluoro-[1,1′-biphenyl]-3-carbonyl)glycyl)-1,4-dioxa-7-azaspiro[4.4]nonane-8-carboxamide]",< 100
10,"Cc1cc(C(=O)NCC(=O)N2CC3(C[C@H]2C(=O)NCc2cc(C(=N)N)cs2)OCCO3)ccc1-c1ccccc1 [Compound 115, (S)—N-((4-carbamimidoylthiophen-2-yl)methyl)-7-((2-methyl-[1,1′-biphenyl]-4-carbonyl)glycyl)-1,4-dioxa-7-azaspiro[4.4]nonane-8-carboxamide]",< 100
11,"CC(C)OC(=O)/N=C(/N)c1csc([C@@H](C)NC(=O)[C@@H]2CC3(CN2C(=O)CNC(=O)c2ccc4c(c2)-c2ccccc2C4(F)F)OCCO3)c1 [Compound 134, isopropyl ((E)-amino(5-((R)-1-((S)-7-((9,9-difluoro-9H-fluorene-3-carbonyl)glycyl)-1,4-dioxa-7-azaspiro[4.4]nonane-8-carboxamido)ethyl)thiophen-3-yl)methylene)carbamate]",< 100
12,"C[C@H](O)[C@H](O)[C@@H](O)[C@@H](O)CNCC(=O)NCCOC[C@@]12C[C@@H]1N(C(=O)CNC(=O)c1ccc3c(c1)-c1ccccc1C3(F)F)[C@H](C(=O)N[C@H](C)c1cc(C(=N)N)cs1)C2 [Compound 89, (1S,3S,5R)—N—((R)-1-(4-carbamimidoylthiophen-2-yl)ethyl)-2-((9,9-difluoro-9H-fluorene-3-carbonyl)glycyl)-5-((2-(2-(((2S,3S,4S,5S)-2,3,4,5-tetrahydroxyhexyl)amino)acetamido)ethoxy)methyl)-2-azabicyclo[3.1.0]hexane-3-carboxamide]",< 100

# Same assay, conditions: Human complement C1s enzyme 1.16 nM, substrate Z-L-Lys-SBzl 100 μM, assay of Example 3; read-out: IC50 (Stars)
row,SMILES,IC50 [nM]
1,"COC[C@@]1(F)C[C@@H](C(=O)N[C@H](C)c2cc(C(=N)N)cs2)N(C(=O)CNC(=O)c2ccc3c(c2)S(=O)(=O)c2ccccc2-3)C1 [Compound 350, (2S,4R)—N—((R)-1-(4-carbamimidoylthiophen-2-yl)ethyl)-1-((5,5-dioxidodibenzo[b,d]thiophene-3-carbonyl)glycyl)-4-fluoro-4-(methoxymethyl) pyrrolidine-2-carboxamide]",< 100
2,"O=C(NCC(=O)N1CC2(C[C@H]1C(=O)NCc1cc(NCCO)cs1)OCCO2)c1ccc(Oc2ccc(F)cc2)cc1 [Compound 308, (S)-7-((4-(4-fluorophenoxy)benzoyl)glycyl)-N-((4-((2-hydroxyethyl)amino)thiophen-2-yl)methyl)-1,4-dioxa-7-azaspiro[4.4]nonane-8-carboxamide]",> 1000
3,"C[C@@H](NC(=O)[C@@H]1C[C@](F)(CF)CN1C(=O)CNC(=O)c1ccc2sc3ccccc3c2c1)c1cc(C(=N)N)cs1 [Compound 354, (2S,4R)—N—((R)-1-(4-carbamimidoylthiophen-2-yl)ethyl)-1-((dibenzo[b,d]thiophene-2-carbonyl)glycyl)-4-fluoro-4-(fluoromethyl)pyrrolidine-2-carboxamide]",< 100
4,"C[C@@H](NC(=O)[C@@H]1C[C@@H](C(F)(F)F)CN1C(=O)CNC(=O)c1ccc(Oc2ccc(F)cc2)cc1)c1cc(C(=N)N)cs1 [Compound 307, (2S,4R)—N—((R)-1-(4-carbamimidoylthiophen-2-yl)ethyl)-1-((4-(4-fluorophenoxy)benzoyl)glycyl)-4-(trifluoromethyl)pyrrolidine-2-carboxamide]",< 100

# Same assay, conditions: Human complement C1s enzyme 1.16 nM, substrate Z-L-Lys-SBzl; assay of Example 3; read-out: IC50 (Stars)
row,SMILES,IC50 [nM]
1,"N=C(N)c1csc([C@@H](CO)NC(=O)[C@@H]2C[C@@H](OC(F)F)CN2C(=O)CNC(=O)c2ccc3c(c2)-c2ccccc2C3(F)F)c1 [Compound 403, (2S,4R)—N—((R)-1-(4-carbamimidoylthiophen-2-yl)-2-hydroxyethyl)-1-((9,9-difluoro-9H-fluorene-3-carbonyl)glycyl)-4-(difluoromethoxy) pyrrolidine-2-carboxamide]",< 100
